Calls of active or inactive are those of the source. No cut-off for these calls is given here.
Target: T1, Dihydrofolate reductase (Homo sapiens) (UniProt P00374)
T1 sequence (whole entry): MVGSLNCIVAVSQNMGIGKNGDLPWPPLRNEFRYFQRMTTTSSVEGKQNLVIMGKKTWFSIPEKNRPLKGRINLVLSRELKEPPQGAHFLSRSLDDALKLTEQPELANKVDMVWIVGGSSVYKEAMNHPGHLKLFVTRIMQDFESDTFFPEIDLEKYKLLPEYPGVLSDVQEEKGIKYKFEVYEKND
Test: Binding affinity to [13C]-labeled DHFR DHFR (unknown origin) expressed in Escherichia coli BL21(DE3) using hyperpolarized compound sample at 1.6 mM by dissolution dynamic nuclear polarization and NMR spectroscopy

Activity: Active
SMILES: Nc1nc(=O)c2nc(CNc3ccc(C(=O)N[C@@H](CCC(=O)O)C(=O)O)cc3)cnc2[nH]1

— ChEMBL document CHEMBL4480401, “Determination of Ligand Binding Epitope Structures Using Polarization Transfer from Hyperpolarized Ligands” (J Med Chem, 2019)
